Experiment [1] deals with T1, FAAH (Mus musculus, UniProt O08914).
T1 sequence (O08914 1-579): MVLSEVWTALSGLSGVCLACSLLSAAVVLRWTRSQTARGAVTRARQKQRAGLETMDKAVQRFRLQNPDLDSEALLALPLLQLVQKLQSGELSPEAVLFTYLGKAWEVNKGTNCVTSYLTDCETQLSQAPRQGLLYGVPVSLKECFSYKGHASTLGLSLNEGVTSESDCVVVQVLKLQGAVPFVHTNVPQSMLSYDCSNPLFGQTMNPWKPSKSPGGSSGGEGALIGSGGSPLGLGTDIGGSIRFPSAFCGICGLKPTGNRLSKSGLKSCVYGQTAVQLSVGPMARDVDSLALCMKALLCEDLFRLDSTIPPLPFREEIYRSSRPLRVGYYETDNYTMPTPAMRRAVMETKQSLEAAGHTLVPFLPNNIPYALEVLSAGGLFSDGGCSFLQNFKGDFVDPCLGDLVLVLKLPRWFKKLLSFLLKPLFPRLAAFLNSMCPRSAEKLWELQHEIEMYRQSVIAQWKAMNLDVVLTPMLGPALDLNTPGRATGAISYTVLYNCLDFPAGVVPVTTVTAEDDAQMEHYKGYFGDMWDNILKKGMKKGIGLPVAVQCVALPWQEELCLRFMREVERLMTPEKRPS
As to the kind of experiment: In vitro competitive activity-based protein profiling (Table 2, % inhibition at 1 μM). The experiment is classed as biochemical. The conditions noted are these: read-out: % Inhibition at 1 μM FAAH.

In experiment [2] the target is T2, ABHD6 (Mus musculus, UniProt Q8R2Y0).
T2 sequence (Q8R2Y0 1-336): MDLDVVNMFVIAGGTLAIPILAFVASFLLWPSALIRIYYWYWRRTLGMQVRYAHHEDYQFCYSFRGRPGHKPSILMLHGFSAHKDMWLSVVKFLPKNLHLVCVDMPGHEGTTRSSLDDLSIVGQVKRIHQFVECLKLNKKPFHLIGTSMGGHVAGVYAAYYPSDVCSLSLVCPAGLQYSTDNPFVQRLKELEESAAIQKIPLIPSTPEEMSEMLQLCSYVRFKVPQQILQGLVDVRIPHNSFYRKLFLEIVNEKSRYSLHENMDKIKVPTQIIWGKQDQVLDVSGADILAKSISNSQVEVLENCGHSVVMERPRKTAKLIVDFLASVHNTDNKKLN
The description is as above. The conditions noted are these: read-out: % Inhibition at 1 μM ABHD6. The experiment is classed as biochemical.

Experiment [3] relates to Mycobacterium Tuberculosis (Mtb). The experiment is described as follows: Microplate Alamar Blue assay (MABA) against Mtb. Format: cell-based. The protocol: The activity of disclosed compounds against Mtb can be assessed according to a method based on the microplate Alamar Blue® assay (MABA) (Collins and Franzblau, 1997. Microplate alamar blue assay versus BACTEC 460 system for high-throughput screening of compounds against Mycobacterium tuberculosis and Mycobacterium avium. Antimicrobial Agents and Chemotherapy 41, 1004-1009). Briefly, stock solutions of disclosed compounds are prepared and added to, for example, two wells of a microplate. One well is inoculated with broth containing Mtb. The second well receives only media in order to assess background fluorescence. For MICs, serial dilutions are performed in media. Each microplate is incubated for a period of time. After incubation, one control growth is developed with a mixture of Alamar Blue® solution and Tween 80. The plates are then reincubated. Afterwards, if the well turns pink, the dye mixture is placed into all wells and the plates are reincubated for an additional period of time. The mean fluorescence units (FU) of media-only wells are subtracted from all other wells. The results are expressed in terms of % inhibition defined as 1-(test well FU/mean FU of triplicate bacteria-only wells)×100. The MIC is defined as the lowest concentration effecting a reduction in fluorescence of ≧90% relative to bacteria-only controls.
(In general: Alamar Blue is a resazurin reagent that responds to reducing activity.)

Experiment [4] relates to Mycobacterium tuberculosis H37Rv (pFCA-luxAB). As to the kind of experiment: microbe, parasite or virus in culture. Format: cell-based. The settings on record: for inhibition at 100 µM: read-out: % Inhibition at 100 μM Mtb LORA.
Experiment [5] addresses T3, MAGL (Mus musculus, UniProt O35678).
T3 sequence (O35678 1-303): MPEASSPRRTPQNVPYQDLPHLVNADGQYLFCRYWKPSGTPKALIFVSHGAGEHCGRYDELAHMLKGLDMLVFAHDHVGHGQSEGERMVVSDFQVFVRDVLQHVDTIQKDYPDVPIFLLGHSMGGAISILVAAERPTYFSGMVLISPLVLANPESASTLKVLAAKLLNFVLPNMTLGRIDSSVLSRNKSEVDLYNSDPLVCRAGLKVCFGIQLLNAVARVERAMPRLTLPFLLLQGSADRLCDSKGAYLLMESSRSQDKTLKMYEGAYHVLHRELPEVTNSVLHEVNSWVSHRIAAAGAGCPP
The experiment is described as follows: In vitro competitive activity-based protein profiling (Table 2, % inhibition at 1 μM). Format: biochemical. The settings on record: read-out: % Inhibition at 1 μM MAGL. How it is done:
After 30 min, FP—Rh (1.0 μL, 50 μM in DMSO) was added and the mixture was incubated for another 30 min at 37° C. Reactions were quenched with SDS loading buffer (50 μL-4×) and run on SDS-PAGE.
Cell lysates were diluted with mock proteomes for use in competitive ABPP experiments.

The target in experiment [6] is T1, FAAH. As to the kind of experiment: biochemical. The conditions noted are these: in vitro competitive ABPP.
Experiment [7] has as its target T2, ABHD6. The experiment is described as follows: biochemical. The settings on record: in vitro competitive ABPP.
For the next experiment, the target named is T4, Mouse brain MAGL (Mus musculus, UniProt O35678).
T4 construct: from tissue; host or cells: brain of wild-type C57Bl/6J mice dosed by oral gavage
T4 sequence (O35678 1-303): T3 sequence (O35678 1-303)
The experiment is described as follows: Mouse brain proteomes from inhibitor treated mice (oral gavage, ABPP analysis). Format: in vivo. The settings on record: p.o., sacrificed 4 h following administration.

Experiment [8] addresses T3, MAGL. As to the kind of experiment: biochemical. The settings on record: mouse; in vitro competitive ABPP; read-out: Mouse (IC50 value, nM) MAGL.

Each structure is given as a SMILES string. ≈ marks a conversion by molar mass, not a printed value.

Consider `O=C(OC(C(F)(F)F)C(F)(F)F)N1CC2CN(Cc3ccc(-c4ccccc4)cc3)CC2C1` (stereo not shown) [Example 9, 1,1,1,3,3,3-Hexafluoropropan-2-yl 5-[(4-phenylphenyl)methyl]-octahydropyrrolo[3,4-c]pyrrole-2-carboxylate], for which the figures for the inhibition at 1 µM at FAAH [1], at ABHD6 [2] and on MAGL [5] were 25 to 75%, 25 to 75% and above 75%, respectively. The MIC in experiment [3] and in experiment [4] (read-out: MIC Mtb LORA) was at most 50 µM in each case. Also, the inhibition (in general, the change of the read-out against control, counted positive when it falls) at 100 µM in experiment [4] was above 80%.
Turning to `CNC(=O)C(OC(=O)N1CC2CN(Cc3ccc(-c4ccccc4)cc3)CC2C1)C(F)(F)F` (stereo not shown) [Example 126, 2,2,2-Trifluoro-1-(methylcarbamoyl)ethyl 5-[(4-phenylphenyl)methyl]-octahydropyrrolo[3,4-c]pyrrole-2-carboxylate], the inhibition at 1 µM was 25 to 75% on FAAH [1], below 25% at ABHD6 [2] and 25 to 75% on MAGL [5]. The compound also showed an MIC in experiment [3] of 51 to 100 µM (≈ 23.5 to 46.1 µg/mL). Moreover, the inhibition at 100 µM in experiment [4] was above 80%.
With `CC(C)n1cc(CN2CC3CN(C(=O)OC(C(F)(F)F)C(F)(F)F)CC3C2)c(-c2cccc(Cl)c2)n1` (stereo not shown) [Example 174, 1,1,1,3,3,3-hexafluoropropan-2-yl 5-[[3-(3-chlorophenyl)-1-(propan-2-yl)-1H-pyrazol-4-yl]methyl]-octahydropyrrolo[3,4-c]pyrrole-2-carboxylate], the IC50 (commonly the concentration that gives 50% inhibition) is 1000 to 10000 nM at FAAH [6], 1000 to 10000 nM on ABHD6 [7] and below 100 nM on MAGL [8]. Besides, the inhibition at 1 µM on FAAH [1] was below 25%; on ABHD6 [2] it was 25 to 75%; at MAGL [5], above 75%. Further, the inhibition at 5 mg/kg on Mouse brain MAGL is at most 25%.
Turning to `CCn1cc(CN2CC3CN(C(=O)OC(C(F)(F)F)C(F)(F)F)CC3C2)c(-c2ccccc2N2CCCCC2)n1` (stereo not shown) [Example 130, 1,1,1,3,3,3-hexafluoropropan-2-yl 5-([1-ethyl-3-[2-(piperidin-1-yl)phenyl]-1H-pyrazol-4-yl]methyl)-octahydropyrrolo[3,4-c]pyrrole-2-carboxylate], the results for the IC50 on FAAH [6], at ABHD6 [7] and at MAGL [8] were above 10000 nM, 1000 to 10000 nM and below 100 nM, respectively. The inhibition at 1 µM on FAAH [1] was below 25%; at ABHD6 [2] it was below 25%; at MAGL [5], above 75%. For the same compound, the inhibition at 5 mg/kg against Mouse brain MAGL is at most 25%.
Regarding `O=C(OC(C(F)(F)F)C(F)(F)F)N1CC2CN(Cc3ccc(Cl)cc3N3CC4CCC(C3)O4)CC2C1` (stereo not shown) [Example 3, 1,1,1,3,3,3-Hexafluoropropan-2-yl 5-(2-(8-oxa-3-azabicyclo[3.2.1]octan-3-yl)-4-chlorobenzyl)hexahydropyrrolo[3,4-c]pyrrole-2(1H)-carboxylate], the IC50 at FAAH [6] is 1000 to 10000 nM; at ABHD6 [7], 1000 to 10000 nM; at MAGL [8] it was below 100 nM. For the same compound, the inhibition at 1 µM is 25 to 75% at FAAH [1], 25 to 75% on ABHD6 [2] and above 75% at MAGL [5]. This compound gave an inhibition at 5 mg/kg against Mouse brain MAGL of at most 25%.
With `Cc1c(CN2CC3CN(C(=O)OC(C(F)(F)F)C(F)(F)F)CC3C2)cccc1N1C2CCC1COC2` (stereo not shown) [Example 127, 1,1,1,3,3,3-hexafluoropropan-2-yl 5-[(2-methyl-3-[3-oxa-8-azabicyclo[3.2.1]octan-8-yl]phenyl)methyl]-octahydropyrrolo[3,4-c]pyrrole-2-carboxylate], the IC50 on FAAH [6] is 1000 to 10000 nM; on ABHD6 [7], 1000 to 10000 nM; at MAGL [8] it was below 100 nM. The inhibition at 1 µM at FAAH [1] is below 25%; on ABHD6 [2], 25 to 75%; at MAGL [5], above 75%. The compound further displayed an inhibition at 5 mg/kg against Mouse brain MAGL of 25 to 75%.
As to `O=C(OC(C(F)(F)F)C(F)(F)F)N1CC2CN(Cc3cccc(N4CCC5(CCOC5)C4)c3C(F)(F)F)CC2C1` (stereo not shown) [Example 128, 1,1,1,3,3,3-hexafluoropropan-2-yl 5-[(3-[2-oxa-7-azaspiro[4.4]nonan-7-yl]-2-(trifluoromethyl)phenyl)methyl]-octahydropyrrolo[3,4-c]pyrrole-2-carboxylate], the IC50 on FAAH [6] was 1000 to 10000 nM; at ABHD6 [7] it was 1000 to 10000 nM; on MAGL [8], below 100 nM. For the same compound, the figures for the inhibition at 1 µM at FAAH [1], on ABHD6 [2] and at MAGL [5] were below 25%, below 25% and above 75%, respectively. At Mouse brain MAGL, the inhibition at 5 mg/kg is at most 25%.
`CC(C)n1cc(CN2CC3CN(C(=O)OC(C(F)(F)F)C(F)(F)F)CC3C2)c(-c2ccccc2Cl)n1` (stereo not shown) [Example 54, 1,1,1,3,3,3-Hexafluoropropan-2-yl 5-[[3-(2-chlorophenyl)-1-(propan-2-yl)-1H-pyrazol-4-yl]methyl]-octahydropyrrolo[3,4-c]pyrrole-2-carboxylate]: the IC50 at FAAH [6] was above 10000 nM; at ABHD6 [7], 100 to 1000 nM; at MAGL [8] it was below 100 nM. Further, the figures for the inhibition at 1 µM on FAAH [1], on ABHD6 [2] and on MAGL [5] were below 25%, 25 to 75% and above 75%, respectively. The inhibition at 5 mg/kg on Mouse brain MAGL fell in the range of 25 to 75%.
On to `CC(C)c1cc(CN2CC3CN(C(=O)OC(C(F)(F)F)C(F)(F)F)CC3C2)n(C2CCOCC2)n1` (stereo not shown) [Example 62, 1,1,1,3,3,3-Hexafluoropropan-2-yl 5-[[1-(oxan-4-yl)-3-(propan-2-yl)-1H-pyrazol-5-yl]methyl]-octahydropyrrolo[3,4-c]pyrrole-2-carboxylate], for which the IC50 on FAAH [6] was 1000 to 10000 nM; on ABHD6 [7] it was 1000 to 10000 nM; on MAGL [8] it was below 100 nM. The inhibition at 1 µM was below 25% at FAAH [1], 25 to 75% on ABHD6 [2] and above 75% on MAGL [5]. The inhibition at 5 mg/kg against Mouse brain MAGL is at least 75%.
Consider `Cc1cc(CN2CC3CN(C(=O)OC(C(F)(F)F)C(F)(F)F)CC3C2)n(C2CCCCC2)n1` (stereo not shown) [Example 58, 1,1,1,3,3,3-Hexafluoropropan-2-yl 5-[(1-cyclohexyl-3-methyl-1H-pyrazol-5-yl)methyl]-octahydropyrrolo[3,4-c]pyrrole-2-carboxylate], for which the IC50 on FAAH [6] is above 10000 nM; on ABHD6 [7] it was 1000 to 10000 nM; on MAGL [8], below 100 nM. Besides, the inhibition at 1 µM at FAAH [1] is below 25%; on ABHD6 [2], 25 to 75%; on MAGL [5] it was above 75%. This compound displayed an inhibition at 5 mg/kg against Mouse brain MAGL of at least 75%.

For the origin of these results see US9828379B2 (priority 2013, dated 2017).
